What was measured:
[1] = target: T1, human prolyl hydroxylase 2 (PHD2) (Homo sapiens, UniProt Q9GZT9); experiment: Fluorescence polarization (FP) competition assay of PHD2; details: purified compounds, 20 nM PHD2 (181-426), 30 nM probe, Cheng-Prusoff, mean±SD, read-out: Ki, binding affinity for PHD2
T1 construct: (181-426); made in house
Experimental: 2.1 Fluorescence polarization (FP) competition assay of PHD2 [4]
FP assays were performed using a SPARK Multi-Mode Microplate Reader (Tecan) with excitation and emission filters appropriate for the fluorophore used in the binding experiment. Fluorescence polarization experiments were performed in 384-well, flat bottom, black assay plates (#3575, Corning) in a final volume of 60 µL. The final assay buffer contained: 30 nM fluorescence Probe, 20 nM PHD2 (181-426), 10 mM HEPES, pH 7.4, 150 mM NaCl, 0.05% Tween-20, and at the 1% DMSO (except for DMSO tolerance experiments, in which different DMSO concentrations were used as indicated). All plates measured in fluorescence polarization assays were incubated for a minimum of 30 min at RT. Fluorescence polarization was measured from the top of the well with a Tecan SPARK plate reader with polarized filters and optical modules for fluorescein (λex = 485 nm ± 25 nm, λem = 535 nm ± 25 nm). The standard error of the mean (SEM) values, were calculated by dividing the sample standard deviation by the square root of the sample size and are recorded as ± values for IC 50. Dose-dependent experiments were performed in th e same manner using at least 10 concentrations of the test compounds in 3 -fold serial dilutions from 100 µM. For each assay, negative controls (equivalent to 0% displacement) contained the fluorescent ligand, PHD2 (181 -426), and 20 µL FP buffer; blank cont rols contained only the fluorescent ligand and 40 µL buffer.
The reaction mixtures were incubated at RT for 60 min, then total fluorescence and fluorescence polarization measurements wer e taken. The percentage inhibition was calculated using Equation 1, where mPfree is the signal for the free probe (blank control) and mPbound is the signal for the bound probe (negative control).
IC50s were determined for duplicate measurements by non-linear least-squares analysis using GraphPad Prism 8.0.
The Ki values of the inhibitors were calculated using the Cheng-Prusoff equation.[5] Cheng-Prusoff equation: Ki = IC50 / (1 + [L]/Kd)
The Kd value was determined using a constant concentration of probe and titrating with PHD2 protein at increasing concentrations. [L] represents the concentration of the […] used in the FP assay. […]

[2] = system: EPO gene expression in Hep3B cells; experiment: RT-qPCR assay of EPO mRNA; format: cell-based, human; details: reference gene HPRT
[3] = Metabolic stability in mouse liver microsomes; format: in vitro ADME
[4] = Metabolic stability in human liver microsomes; format: in vitro ADME
[5] = system: C57BL/6J mouse models of anemia induced by cisplatin; experiment: Improvement of anemia induced by cisplatin administration; format: in vivo; details: cisplatin-induced anemia mice; for Improvement of anemia (%): po
Experimental: 5. Pharmacodynamic assay
The experimental mice (SPF, […], male) were obtained from SPF (Beijing) Biotechnology Co., Ltd (permit number: SCXK (Jing) 2019-0010). All animal related experiments were conducted under a China Pharmaceutical University (the certification of using the housing facility of laboratory animals: SYXK (Su) 2018 -0019) IACUC approved protocol in compliance with the guide for the care and use of laboratory animals (number: 202013705). […]
Representative compounds and Roxadustat were formulated in normal saline solution. […]
China Pharmaceutical University (ADVIA 2120 hematology system). […]
5.3 Improvement of anemia induced by cisplatin administration
C57BL/6J mice were treated with cisplatin ( po, 7 mg·kg-1) on days 0, 7, 14, and 28 of the experiment. On the 29th day, the animals were randomized into sham, control, and treated groups (n=5). […]
treatment anemia caused by cisplatin. The mice were treated with the compounds every alternate day for 30 days. the test sample is obtained via orbital venous plexus. The hemoglobin of samples was analyzed in the center for new drug safety evaluation and research at China Pharmaceutical University (ADVIA 2120 hematology system).

[6] = Acute oral toxicity assay; format: in vivo; details: both sexes, mouse, in vivo, 400 mg·kg-1; ICR mice, single oral administration
[7] = system: ICR mice; experiment: Acute oral toxicity assay; format: in vivo; details: 400 mg kg−1 oral, once
[8] = pH 7.4, read-out: t1/2 in liver microsomes

T1 sequence (Q9GZT9 181-426): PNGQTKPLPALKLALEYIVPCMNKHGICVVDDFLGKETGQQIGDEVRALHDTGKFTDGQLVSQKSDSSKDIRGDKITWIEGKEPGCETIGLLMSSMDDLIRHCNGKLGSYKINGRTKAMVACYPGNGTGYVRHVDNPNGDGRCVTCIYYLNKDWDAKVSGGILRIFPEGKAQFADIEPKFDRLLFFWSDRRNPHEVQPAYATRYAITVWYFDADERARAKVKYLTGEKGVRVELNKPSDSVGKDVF

In the case of `O=C(N/N=C/c1cccc(O)c1Cl)c1cnc(-c2cccnn2)[nH]c1=O` [compound 17], the Ki [1] is reported as 27 ± 2 nM, the “EPO mRNA expression by RT-qPCR” value [2] is reported as “increases EPO mRNA in a concentration‐dependent manner with comparable efficiency to Roxadustat” and the “compound present (remaining) in liver microsomes” value ([3]; after 50 min, 1 μM, 0.5 mg/mL) is reported as greater than 80%. The half-life at 1 μM [3, 8] was greater than 1.67 h, the “compound present (remaining) in liver microsomes” value ([4]; after 50 min, 1 μM, 0.5 mg/mL) was greater than 80% and the half-life at 1 μM [4, 8] was greater than 1.67 h. For the same compound, the “hemoglobin (Hb) levels” value ([5]; po 5, 10, 20 mg kg−1, every alternate day for 30 days) was “increased in a dose‐dependent manner”, the “Improvement of anemia (%)” value ([5]; 5 mg·kg^-1) was 31.8% and the “Improvement of anemia (%)” value ([5]; 10 mg·kg^-1) was 51.5%. The “Improvement of anemia (%)” value ([5]; 20 mg·kg^-1) was 90.9%, the LD50 [6] was greater than 400 mg/kg and the “acute oral toxicity findings (body weight, organ/body weight ratio, ALT, AST, BUN, CRE)” value [7] was “no obvious abnormality”.
